Assay: HILIC, Waters ACQUITY UPLC BEH Amide, 100 × 2.1 mm, 1.7 µm; A: water + 0.125% formic acid + 10 mM ammonium formate; B: 5% water + 95% acetonitrile + 0.125% formic acid + 10 mM ammonium formate; gradient (min/%B) 0/100 2/100 7.7/70 9.5/40 10.25/30 12.75/100 17/100
Details: stereoisomer not certain

Question: Which LC retention time does the source give for `NC(CCC(=O)NC(CSSCC(NC(=O)CCC(N)C(=O)O)C(=O)NCC(=O)O)C(=O)NCC(=O)O)C(=O)O` (stereo not drawn) [Glutathione (oxidized)] here?
Answer: Its LC retention time is 10.2 min.

Question: With `CCCC(=O)NCC(=O)O` [Butyrylglycine] as the compound, how does the LC retention time read?
Answer: Its LC retention time is 3.73 min.

Question: With `CCN(CC)CC(=O)Nc1c(C)cccc1C` [Lidocaine] as the compound, how does the LC retention time read?
Answer: The LC retention time was 1.97 min.

Question: Which LC retention time does the source give for `O=C(CCc1ccc(O)cc1)c1c(O)cc(O)cc1O` [Phloretin] here?
Answer: The LC retention time was 1.5 min.

Question: Which LC retention time does the source give for `COc1ccccc1OCCNCC(O)COc1cccc2[nH]c3ccccc3c12` (stereo not drawn) [Carvedilol] here?
Answer: Its LC retention time is 3.17 min.

Question: With `CC(C)C(NC(=O)CN)C(=O)O` (stereo not drawn) [Gly-val] as the compound, how does the LC retention time read?
Answer: Its LC retention time is 8.05 min.

Question: With `NC(CSSCC(N)C(=O)O)C(=O)O` (stereo not drawn) [Cystine] as the compound, how does the LC retention time read?
Answer: Its LC retention time is 9.97 min.

Question: Which LC retention time does the source give for `CC1CNC(=O)NC1=O` (stereo not drawn) [5,6-Dihydro-5-methyluracil] here?
Answer: The LC retention time was 1.57 min.

Question: With `CC(C)=CC(=O)NCC(=O)O` [3-Methylcrotonylglycine] as the compound, how does the LC retention time read?
Answer: Its LC retention time is 2.95 min.

Question: With `Cc1ccc(O)c(C(CCN(C(C)C)C(C)C)c2ccccc2)c1` (stereo not drawn) [Tolterodine] as the compound, how does the LC retention time read?
Answer: The LC retention time was 2.13 min.

Question: With `CCN1CC(CCN2CCOCC2)C(c2ccccc2)(c2ccccc2)C1=O` (stereo not drawn) [Doxapram] as the compound, how does the LC retention time read?
Answer: Its LC retention time is 1.64 min.

Question: Which LC retention time does the source give for `Nc1ccccc1S(=O)(=O)O` [Orthanilic acid] here?
Answer: The LC retention time was 2.52 min.

Question: Which LC retention time does the source give for `CC(N)C(O)c1ccccc1` (stereo not drawn) [Phenylpropanolamine] here?
Answer: The LC retention time was 5.29 min.

Question: For `C=C(OP(=O)(O)O)C(=O)O` [Phosphoenolpyruvic acid], which LC retention time is on record?
Answer: The LC retention time was 9.05 min.

Question: For `O=C(O)CCc1c[nH]c2ccccc12` [3-Indolepropionic acid], which LC retention time is on record?
Answer: Its LC retention time is 1.28 min.

Question: For `CN=C(NC)NCCCC(N)C(=O)O` (stereo not drawn) [SDMA], which LC retention time is on record?
Answer: The LC retention time was 8.49 min.

Question: Which LC retention time does the source give for `COc1cn(C2OC(CO)C(O)C2O)c(=O)[nH]c1=O` (stereo not drawn) [5-Methoxyuridine] here?
Answer: Its LC retention time is 4.72 min.

Question: Which LC retention time does the source give for `CCCSc1ccc2nc(NC(=O)OC)[nH]c2c1` [Albendazole] here?
Answer: The LC retention time was 1.22 min.

Question: With `NC(C(=O)NC1C(=O)N2C(C(=O)O)=C(Cl)CSC12)c1ccccc1` (stereo not drawn) [Cefaclor] as the compound, how does the LC retention time read?
Answer: The LC retention time was 5.61 min.

Question: With `CC(O)C(C)O` (stereo not drawn) [2,3-Butanediol] as the compound, how does the LC retention time read?
Answer: Its LC retention time is 3.34 min.

Question: With `Clc1cccc(Cl)c1NC1=NCCN1` [Clonidine] as the compound, how does the LC retention time read?
Answer: Its LC retention time is 2.85 min.

Question: Which LC retention time does the source give for `C[S+](CCC(N)C(=O)[O-])CC1OC(n2cnc3c(N)ncnc32)C(O)C1O` (stereo not drawn) [S-Adenosyl-methionine] here?
Answer: Its LC retention time is 9.7 min.

Question: Which LC retention time does the source give for `Cc1cc(O)cc(=O)o1` [4-Hydroxy-6-methyl-2-pyrone] here?
Answer: Its LC retention time is 1.47 min.

Question: For `COc1ccc(C(=O)NCc2ccc(OCCN(C)C)cc2)cc1OC` [Itopride], which LC retention time is on record?
Answer: Its LC retention time is 3.65 min.

Question: For `CN1C(=O)CC(=O)N(c2ccccc2)c2cc(Cl)ccc21` [Clobazam], which LC retention time is on record?
Answer: Its LC retention time is 1.1 min.

Question: For `NC(=O)NC(NC(N)=O)C(=O)O` [Allantoic acid], which LC retention time is on record?
Answer: Its LC retention time is 8.56 min.

Question: With `NNCCc1ccccc1` [Phenelzine] as the compound, how does the LC retention time read?
Answer: The LC retention time was 4.45 min.

Question: With `CN1C(=O)CCC1c1ccc[n+]([O-])c1` [(S)-Cotinine N-oxide] as the compound, how does the LC retention time read?
Answer: Its LC retention time is 3.87 min.

Question: For `CN(C)CCC=C1c2ccccc2COc2ccc(CC(=O)O)cc21` [Olopatadine], which LC retention time is on record?
Answer: Its LC retention time is 4.41 min.

Question: For `Nc1c2c(nc3c1CCC3)CCCC2` [Ipidacrine], which LC retention time is on record?
Answer: The LC retention time was 3.33 min.

Question: With `NC(CCS)C(=O)O` (stereo not drawn) [Homocysteine] as the compound, how does the LC retention time read?
Answer: The LC retention time was 9.58 min.

Question: Which LC retention time does the source give for `COc1ccc2[nH]cc(CCN)c2c1` [5-Methoxytryptamine] here?
Answer: Its LC retention time is 4.99 min.

Question: For `C[N+]1(C)CCCC1C(=O)[O-]` (stereo not drawn) [Stachydrine], which LC retention time is on record?
Answer: Its LC retention time is 7.1 min.

Question: Which LC retention time does the source give for `O=C(O)C=Cc1ccc(O)cc1` [p-Coumaric acid] here?
Answer: The LC retention time was 1.38 min.

Question: For `COC1C(O)C(CO)OC1n1ccc(N)nc1=O` (stereo not drawn) [2'-O-Methylcytidine], which LC retention time is on record?
Answer: The LC retention time was 5.02 min.

Question: For `Cn1c(=O)c2[nH]cnc2n(C)c1=O` [Theophylline], which LC retention time is on record?
Answer: The LC retention time was 1.54 min.

Question: Which LC retention time does the source give for `O=C1CCC(C(=O)O)N1` (stereo not drawn) [Pyroglutamic acid] here?
Answer: Its LC retention time is 8.71 min.

Question: With `CC(=O)NC(Cc1c[nH]c2ccccc12)C(=O)O` (stereo not drawn) [N-Acetyltryptophan] as the compound, how does the LC retention time read?
Answer: Its LC retention time is 2.81 min.

Source: the RepoRT retention time repository
